The values that follow come from ChEMBL document CHEMBL1201862, “PubChem BioAssay data set” (2004).

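Dose response: 5 concentrations. Exposure: 48 h. Format: 96-well plates. Endpoint: linear interpolation; highest concentration if not reached. GI50: concentration for 50% inhibition of growth.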 Activity calls are given as the source filed them. Cut-off read from the data, not from the text of the source: active = GI50 up to about 1.1 µM and inactive = higher.

Assay in all cases: NCI-60 cell line screen, 48 h
The test system of experiment [1] is RXF 393.
The subject of experiment [2] is HOP-62.
For experiment [3], the system named is MCF7.
Experiment [4] has as its system SF-268.
The test system of experiment [5] is SK-MEL-28.
Experiment [6] concerns HCT-15.
Experiment [7] has as its system K562.
Experiment [8] deals with MDA-MB-435.
The test system of experiment [9] is SK-MEL-5.
Experiment [10] concerns HOP-92.
Experiment [11] deals with MDA-N.
Experiment [12] relates to CAKI-1.
Experiment [13] relates to UACC-62.
Experiment [14] concerns MOLT-4.
The test system of experiment [15] is A549.
Experiment [16] relates to NCI-H226.
Experiment [17] concerns UO-31.
The test system of experiment [18] is EKVX.
The test system of experiment [19] is SN12C.

For the molecule `COc1ccc(/C=C/C(=O)NCC(NC(=O)/C=C/c2ccc(OC)c(OC)c2)C(=O)O)cc1OC` (stereo not given), the GI50 in experiment [1] was > 100 µM (inactive); in experiment [2], > 100 µM (inactive); in [3], > 100 µM (inactive); in [4] it was > 100 µM (inactive); in experiment [5] it was > 100 µM (inactive); in experiment [6] it was less than 0.01 µM. Also, the GI50 in [7] is > 100 µM (inactive); in [8] it was > 100 µM (inactive); in experiment [9] it was > 100 µM (inactive); in [10], 0.0163 µM (active); in experiment [11], > 100 µM (inactive); in experiment [12], > 100 µM (inactive). Moreover, the GI50 in experiment [13], in [14], in experiment [15], in experiment [16], in experiment [17] and in experiment [18] was > 100 µM (inactive) each time. In [19], the GI50 was > 100 µM (inactive).
On to `CCCCCCCCCC[C@H](O)[C@H]1CC[C@H]([C@H]2CC[C@H]([C@H](O)CC[C@H](O)CCCCCCC[C@@H](O)CC3=C[C@H](C)OC3=O)O2)O1`, for which the GI50 in experiment [1] is 40 µM (inactive); in experiment [2], > 10 µM (inactive); in [3], 1.52 µM (inactive); in experiment [4], 3.57 µM (inactive); in experiment [5], > 10 µM (inactive); in experiment [6], 43.9 µM. The GI50 in experiment [7] is 2.96 µM (inactive); in [8] it was 3.9 µM (inactive); in experiment [9] it was 1.41 µM (inactive); in experiment [10], 6.93 µM (inactive); in experiment [11] it was 8.75 µM (inactive); in experiment [12] it was 57 µM (inactive). Moreover, the GI50 was > 10 µM (inactive) in [13]; 2.96 µM (inactive) in experiment [14]; 4.6 µM (inactive) in experiment [15]; 2.47 µM (inactive) in [16]; 2.02 µM (inactive) in experiment [17]; 23.5 µM (inactive) in [18]. Moreover, in experiment [19], the GI50 is 91.4 µM (inactive).
Consider `O=C(O)C1CCN(Cc2oc(CO)cc(=O)c2O)C1` (stereo not given), for which the GI50 in experiment [1] was > 100 µM (inactive); in [2], > 100 µM (inactive); in experiment [3] it was > 100 µM (inactive); in experiment [4], > 100 µM (inactive); in experiment [5] it was > 100 µM (inactive); in experiment [6] it was greater than 100 µM. The GI50 in [7], in experiment [8], in experiment [9], in experiment [10], in experiment [11] and in [12] was > 100 µM (inactive) each time. For the same molecule, the GI50 in experiment [13], in experiment [14], in experiment [15], in experiment [16], in [17] and in experiment [18] was > 100 µM (inactive) each time. Moreover, the GI50 in [19] is > 100 µM (inactive).
Regarding `O=C(N/N=C\c1ccc(Cl)cc1)Nc1cccc2ccccc12`, the GI50 in [1] was 3.01 µM (inactive); in experiment [2], 2.01 µM (inactive); in [3] it was 3.4 µM (inactive); in [4], 6.44 µM (inactive); in [5] it was 22.5 µM (inactive); in experiment [6], 3.36 µM. Besides, the GI50 in experiment [7] is 3.23 µM (inactive); in experiment [8] it was 2 µM (inactive); in experiment [9], 4.45 µM (inactive); in experiment [10], 4.91 µM (inactive); in experiment [11], 2.21 µM (inactive); in experiment [12], 2.42 µM (inactive). Besides, the GI50 in experiment [13] was 9.48 µM (inactive); in experiment [14], 5.61 µM (inactive); in experiment [15] it was 6.71 µM (inactive); in experiment [16] it was 10.4 µM (inactive); in [17] it was 2.1 µM (inactive); in [18], 18.7 µM (inactive). Further, in experiment [19], the GI50 is 9.51 µM (inactive).
On to `CC(=O)C(C(C)=O)[C@@H]1OC(C)(C)O[C@@H]1[C@H]1COC(C)(C)O1`, for which the GI50 in [1] was 51.8 µM (inactive); in experiment [2], 45.9 µM (inactive); in experiment [3], 43.8 µM (inactive); in experiment [4] it was 30.1 µM (inactive); in experiment [5], 60.3 µM (inactive); in [6], 41.5 µM. The GI50 was 30.2 µM (inactive) in experiment [7]; 38.7 µM (inactive) in experiment [8]; 47.8 µM (inactive) in [9]; > 100 µM (inactive) in experiment [10]; 23.3 µM (inactive) in [11]; 53.2 µM (inactive) in [12]. The GI50 is > 100 µM (inactive) in [13]; 47.5 µM (inactive) in experiment [14]; > 100 µM (inactive) in [15]; > 100 µM (inactive) in experiment [16]; 55.2 µM (inactive) in experiment [17]; 27.7 µM (inactive) in [18]. The GI50 in [19] is 20.8 µM (inactive).
For the molecule `Cc1c2cccc-2ccc2c1[nH]c1ccccc12`, the GI50 in experiment [1] is 3.21 µM (inactive); in [2], 3.49 µM (inactive); in experiment [3], 3.06 µM (inactive); in [4] it was 2.04 µM (inactive); in experiment [5] it was 1.75 µM (inactive); in experiment [6], 2.58 µM. In addition, the GI50 in experiment [7] is 2.94 µM (inactive); in [8] it was 2.27 µM (inactive); in experiment [9], 1.79 µM (inactive); in experiment [10], 2.83 µM (inactive); in [11], 1.97 µM (inactive); in [12], 6.31 µM (inactive). Also, the GI50 was 1.91 µM (inactive) in experiment [13]; 3.57 µM (inactive) in experiment [14]; 2.22 µM (inactive) in experiment [15]; 1.97 µM (inactive) in experiment [16]; 1.63 µM (inactive) in experiment [17]; 1.45 µM (inactive) in experiment [18]. For the same molecule, the GI50 in experiment [19] was 2.34 µM (inactive).
For the molecule `C=C(C(=O)OC)[C@H]1CC/C(C)=C/CC/C(C)=C/CC[C@@]2(C)O[C@@H]2C1`, the GI50 was 14.9 µM (inactive) in experiment [1]; 20.7 µM (inactive) in experiment [2]; 17 µM (inactive) in experiment [3]; 34.6 µM (inactive) in experiment [5]; 16.3 µM in experiment [6]; 11.9 µM (inactive) in experiment [7]. Also, the GI50 is 22.9 µM (inactive) in [8]; 10.3 µM (inactive) in experiment [9]; 16.4 µM (inactive) in experiment [10]; 18.2 µM (inactive) in experiment [11]; 13.2 µM (inactive) in [12]; 11.9 µM (inactive) in experiment [13]. Also, the GI50 in [14] was 15.8 µM (inactive); in [15] it was 14.9 µM (inactive); in experiment [16], 19.9 µM (inactive); in experiment [17], 19 µM (inactive); in experiment [18], 18.7 µM (inactive); in experiment [19], 16.9 µM (inactive).
Regarding `C[C@]12Cc3cnn(-c4ccc(F)cc4)c3NC1CC[C@@H]1C2CC[C@@]2(C)C1CC[C@@H]2O` (stereo not given in full), the GI50 was 1.16 µM (inactive) in [1]; 9.75 µM (inactive) in experiment [2]; 4.32 µM (inactive) in experiment [3]; 10.1 µM (inactive) in experiment [4]; 14.1 µM (inactive) in experiment [5]; 2.94 µM (inactive) in experiment [7]. Also, the GI50 in [8] is 7.8 µM (inactive); in experiment [9], 2.65 µM (inactive); in experiment [10], 11 µM (inactive); in [11], 10.2 µM (inactive); in experiment [12], 15.5 µM (inactive); in [13], 11 µM (inactive). Further, the GI50 in [14] is 2.5 µM (inactive); in experiment [15], 4.14 µM (inactive); in [16] it was 7.93 µM (inactive); in experiment [17], 8.61 µM (inactive); in experiment [18], 4.75 µM (inactive); in experiment [19] it was 13.2 µM (inactive).
